We go through three compounds from patent publication EP0811615A1, “1-Aryl-5-(substituted alkyl (thio) amido) pyrazoles and their use as pesticides” (RHONE-POULENC AGROCHIMIE, priority 1996, dated 1997).

Like-named read-outs stand apart in the source and are kept apart here.

Holding throughout (format): in vivo
One assay deals with twospotted spider mite. As to the kind of experiment: Twospotted spider mite test. The following applies: Tetranychus urticae, 144 h, read-out: control of mites. On the procedure: Twospotted spider mite: Leaves infested with adult and nymphal stages of the two-spotted spider mite, obtained from a stock culture were placed on the primary leaves of two bean plants growing in a 6 cm. peat pot. A sufficient number of mites (150-200) for testing were transferred to the fresh plants within a period of twenty-four hours. The potted plants (one pot per compound) were placed on a revolving turntable and sprayed, sufficient to wet the plants to runoff, with 100 ml of the 100 ppm test compound formulation by use of a DeVilbiss spray gun set at 40 psig. air pressure. As an untreated control, 100 ml of the water-acetone-DMF-emulsifler solution, containing no test compound, were also sprayed on infested plants. A treated control with a commercial technical compound, either dicofol or hexythiazox, formulated in the same manner, was tested as a standard. The sprayed plants were held for six days, after which a mortality count of motile forms was made.

For another assay, the system named is housefly. Nature of the assay: House fly bait test. The following applies: Musca domestica; bait application at 100 ppm; adult flies, after 24 hours; read-out: pest mortality HF. From the text: For housefly tests, the formulation was initially prepared in a similar manner to the above, but in 16.3 g of water with corresponding adjustment of other components, providing a 200 ppm concentration. Final dilution with an equal volume of a 20% by weight aqueous solution of sucrose provided a 100 ppm concentration of the test compound. When necessary, sonication was provided to insure complete dispersion.
House fly: Four to six day old adult house flies were reared according to the specifications of the Chemical Specialties Manufacturing Association (Blue Book, McNair-Dorland Co., N.Y. 1954; pages 243-244, 261) under controlled conditions. The flies were immobilized by anesthetizing with carbon dioxide and twenty five immobilized individuals, males and females, were transferred to a cage consisting of a standard food strainer and a wrapping-paper-covered surface. Ten ml of the 100 ppm test compound formulation were added to a soufflé cup containing an absorbent cotton pad. As an untreated control, 10 ml of a water-acetone-DMF-emulsifier-sucrose solution, containing no test compound, were applied in a similar manner. A treated control with a commercial technical compound, malathion, formulated in the same manner, was tested as a standard. The bait cup was introduced inside the food strainer prior to admitting the anesthetized flies.

The subject of a further assay is southern armyworm. Nature of the assay: Southern armyworm foliar spray test on bean plants. Particulars: Spodoptera eridania, 120 h; foliar application at 100 ppm; second instar larvae, held five days; read-out: pest mortality SAW. On the procedure: (§1) For mite, aphid, southern armyworm, Mexican bean beetle, and tobacco budworm tests, a solution or suspension was prepared by adding 10 mg of the test compound to a solution of 160 mg of dimethylformamide, 838 mg of acetone, 2 mg of a 3:1 ratio of Triton X-172 : Triton X-152 (respectively, mainly anionic and nonionic low foam emulsifiers which are each anhydrous blends of alkylaryl polyether alcohols with organic sulfonates), and […] of water. The result was a concentration of 100 ppm of the test compound.
(§2) Southern armyworm: Potted bean plants, were placed on a revolving turntable and sprayed with 100 ml of the 100 ppm test compound formulation by use of a DeVilbiss spray gun set at 40 psig air pressure. As an untreated control, 100 ml of a water-acetone-DMF-emulsifier solution, containing no test compound, were also sprayed on plants. A treated control with a commercial technical compound, either cypermethrin or sulprofos, formulated in the same manner, was tested as a standard. When dry, the leaves were placed in plastic cups lined with moistened filter paper. Five randomly selected second instar southern armyworm larvae were introduced into each cup which was closed and held for five days. Larvae which were unable to move the length of the body, even upon stimulation by prodding, were considered dead.

The subject of assay [1] is southern root-knot nematode. As to the kind of experiment: Southern root-knot nematode soil test on tomato. The following applies: Meloidogyne incognita; Soil Conc. at 21 Kg/ha; second stage juveniles; read-out: pest mortality Nema (J2). More on the design: dose or concentration left out as unconfirmed. The procedure: For southern root-knot nematode and systemic tests for southern armyworm, cotton aphid, tobacco budworm and greenbug, a stock solution or suspension was prepared by adding 15 mg of the test compound to 250 mg of dimethylformamide, 1250 mg of acetone and 3 mg of the emulsifier blend referenced above. Water was then added to provide a test compound concentration of 150 ppm. When necessary, sonication was provided to insure complete dispersion.
Southern root-knot nematode: Infected roots of tomato plants, containing egg masses of southern root-knot nematode, were removed from a stock culture and cleaned of soil by shaking and washing with tap water. The nematode eggs were separated from the root tissue and rinsed with water. Samples of the egg suspension were placed on a fine screen over a receiving bowl, in which the water level was adjusted to be in contact with the screen. From the bowl, juveniles were collected on a fine screen. The bottom of a cone-shaped container was plugged with coarse vermiculite and then filled to within 1.5 cm of the top with about a 200 ml volume of pasteurized soil. Then into a hole made in the center of the soil in the cone was pipetted an aliquot of the 150 ppm test compound formulation. A treated control with a commercial technical compound, fenamifos, formulated in a similar manner, was tested as a standard. As an untreated control, an aliquot of a water-acetone-DMF-emulsifier solution, containing no test compound, was applied in a similar manner. Immediately after treatment of the soil with the test compound there were added to the top of each cone 1000 second stage juvenile southern root-knot nematodes. After 3 days, a single healthy tomato seedling was then transplanted into the cone. The cone, containing the infested soil and tomato seedling, was kept in the greenhouse for 3 weeks. At the termination of the test, […], […]

Another assay concerns Mexican bean beetle. Nature of the assay: Mexican bean beetle foliar spray test on bean plants. The following applies: Epilachna varivestis, 120 h; foliar application at 100 ppm; second instar larvae, held five days; read-out: pest mortality MBB. The procedure: as §1
as §2, with “Mexican bean beetle:” for “Southern armyworm:”, “plants” for “plants,”, “formulation, sufficient to wet the plants to runoff,” for “formulation”, “Mexican bean beetle” for “southern armyworm”

For another assay, the system named is tobacco budworm. As to the kind of experiment: Tobacco budworm foliar spray test on cotton plants. Particulars: Heliothis virescens, 120 h; foliar application at 100 ppm; second instar larvae, held five days; read-out: pest mortality TBW. On the procedure:
as §1
Tobacco budworm: Potted cotton plants were placed on a revolving turntable and sprayed with 100 ml of the 100 ppm test compound formulation by use of a DeVilbiss spray gun set at 40 psig air pressure. As an untreated control, 100 ml of a water-acetone-DMF-emulsifier solution, containing no test compound, were also sprayed on plants. A treated control with a commercial technical compound, either cypermethrin or sulprofos, formulated in the same manner, was tested as a standard. When dry, the leaves were placed in plastic dishes containing a piece of filter paper and a moistened dental wick. One randomly selected second instar tobacco budworm larva was then introduced into each cup which was closed and held for five days. Larvae unable to move the length of their body, even upon stimulation by prodding, were considered dead.

Turning to `COC(C)C(=O)Nc1c([S+]([O-])C(F)(F)F)c(C#N)nn1-c1c(Cl)cc(C(F)(F)F)cc1Cl` (stereo not shown) [Compound 24], the mortality at 100 ppm with twospotted spider mite (foliar) was 30 to 70%; in the assay with housefly, 70 to 100%; with southern armyworm, 70 to 100%; with Mexican bean beetle, 70 to 100%. For the same compound, in assay [1], the mortality lay within 70 to 100%.

For `COCC(=O)Nc1c(SC(F)(Cl)Cl)c(C#N)nn1-c1c(Cl)cc(OC(F)(F)F)cc1Cl` [Compound 46], the mortality at 100 ppm in the assay on twospotted spider mite (100 ppm in foliar bait tests) lay within 30 to 70%; in the assay with housefly, 70 to 100%; in the assay with southern armyworm, 70 to 100%; in the assay with tobacco budworm it was 70 to 100%.

For the compound `COC(C)C(=O)Nc1c(SC(F)(Cl)Cl)c(C#N)nn1-c1c(Cl)cc(OC(F)(F)F)cc1Cl` (stereo not shown) [Compound 47], the mortality at 100 ppm lay in the range of 30 to 70% in the assay on twospotted spider mite (100 ppm in foliar bait tests), 70 to 100% in the assay with housefly, 70 to 100% with southern armyworm and 70 to 100% in the assay on tobacco budworm.
